The values that follow are results of earlier work, collected in patent US12133847B2, “Pharmaceutical composition and preparation method therefor” (Shenzhen Pharmacin Co., Ltd., priority 2014, dated 2024).

Counter-ions that a name gives are not always drawn. Like-named read-outs stand apart in the source and are kept apart here.

For series [1] the following is noted: in vivo.

Regarding `CCCCCCOC(=O)NC(=N)c1ccc(NCc2nc3cc(C(=O)N(CCC(=O)OCC)c4ccccn4)ccc3n2C)cc1` [Dabigatran etexilate mesylate, dabigatran etexilate mesylate], the Solubility entry is, setting by setting: (in acidic media) “high solubility”; (in neutral and alkaline media) “very poor solubility”; (physiological conditions, in the intestine near pH 7.0) “substantially insoluble”.
In the case of `[H]/N=C(/N)c1ccc(NCc2nc3cc(C(=O)N(CCC(=O)O)c4ccccn4)ccc3n2C)cc1` [dabigatran], the Oral bioavailability entry in series [1] is reported as “very low oral bioavailability”.
